US12018016B2, “Aryl sulfonyl (hydroxy) piperidines as CCR6 inhibitors” (CHEMOCENTRYX, INC., priority 2021, dated 2024)

These molecules were tested against T1, human CCR6 (Homo sapiens, UniProt P51684) (assay: Migration assay (chemotaxis, ChemoTX)). Conditions: hCCR6-transfected Ba/F3 cells in human serum, migration to recombinant human CCL20 10 nM, 37° C. 45 minutes; read-out: Potency (IC50 value in the migration assay).
T1 construct: expressed in transfected cells; host or cells: Ba/F3 cells (mouse pro-B line)
T1 sequence (P51684 1-374): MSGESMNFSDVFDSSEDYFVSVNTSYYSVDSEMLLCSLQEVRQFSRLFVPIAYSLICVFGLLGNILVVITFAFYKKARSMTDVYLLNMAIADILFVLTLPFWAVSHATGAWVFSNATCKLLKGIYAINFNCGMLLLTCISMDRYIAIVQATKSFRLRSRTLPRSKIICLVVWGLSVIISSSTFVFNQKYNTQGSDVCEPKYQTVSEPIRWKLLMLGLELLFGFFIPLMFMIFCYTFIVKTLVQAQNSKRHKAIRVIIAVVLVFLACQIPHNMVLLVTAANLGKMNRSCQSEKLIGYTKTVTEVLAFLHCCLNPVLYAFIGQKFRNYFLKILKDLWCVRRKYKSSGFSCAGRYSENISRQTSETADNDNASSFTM
Assay type: cell-based
From the text: A chemotaxis assay can be used to determine the efficacy of potential receptor antagonists at blocking the migration mediated through chemokine receptors, such as CCR6. This assay is routinely performed using the ChemoTX® microchamber system with a 5-μm pore-sized polycarbonate membrane. Chemokine receptor-expressing cells are required for such an assay. In this case, Ba/F3 cells (Palacios et al., Nature, 309:126, 1984) transfected with the gene for human CCR6 under control of the CMV promotor were used. To begin such an assay, hCCR6-transfected Ba/F3 cells are first grown for 24 hr in medium supplemented with sodium butyrate, which increases CCR6 transcription via the CMV promotor. The prepared Ba/F3 cells, are collected by centrifugation at 400×g at room temperature, then suspended at 4 million/ml in human serum. The compound being tested is serially diluted from a maximum final concentration of 1 μM (or an equivalent volume of its solvent (DMSO)) and is then added to the cell/serum mixture. Separately, recombinant human CCL20 (MIP-3α/LARC) at its EC50 concentration (10 nM) is placed in the lower wells of the ChemoTX® plate. The 5-μm (pore size) polycarbonate membrane is placed onto the plate, and 20 μL of the cell/compound mixture is transferred onto each well of the membrane. The plates are incubated at 37° C. for 45 minutes, after which the polycarbonate membranes are removed and 5 μl of the DNA-intercalating dye CyQUANT (Invitrogen, Carlsbad, CA) is added to the lower wells. The amount of fluorescence, corresponding to the number of migrated cells, is measured using a Spectrafluor Plus plate reader (TECAN, San Jose, CA).

Molecule	IC50 [nM]
4-(4-(((3S,4R)-3-hydroxy-4-((4-(trifluoromethyl)phenyl)amino)piperidin-1-yl)sulfonyl)phenyl)picolinamide [Compound 81]	< 1
CN(C)C1CCN(c2cc(-c3ccc(S(=O)(=O)N4CC[C@@H](Nc5ccc(C(F)(F)F)cn5)[C@@H](O)C4)cc3)ccn2)CC1 [Compound 143]	1 to 10
NC(=O)c1cccc(-c2ccc(S(=O)(=O)N3CC[C@@H](Nc4ccc(C(F)(F)F)cn4)[C@@H](O)C3)cc2)c1 [Compound 117]	< 1
Cc1cc(-c2ccc(S(=O)(=O)N3CC[C@@H](Nc4ccc(C(F)(F)F)cn4)[C@@H](O)C3)cc2)ccn1 [Compound 163]	< 1
O=S(=O)(c1ccc(-c2ccnc(N3CC[C@@H](O)C3)c2)cc1)N1CC[C@@H](Nc2ccc(C(F)(F)F)cn2)[C@@H](O)C1 [Compound 134]	< 1
NC1CCN(c2ccc(-c3ccc(S(=O)(=O)N4CC[C@@H](Nc5ccc(C(F)(F)F)cn5)[C@@H](O)C4)cc3)cn2)CC1 [Compound 106]	< 1
COc1ccc(-c2ccc(S(=O)(=O)N3CC[C@@H](Nc4ccc(C(F)(F)F)cn4)[C@@H](O)C3)cc2)cn1 [Compound 154]	1 to 10
O=S(=O)(c1ccc(-c2ccnc(N3CC4(CNC4)C3)c2)cc1)N1CC[C@@H](Nc2ccc(C(F)(F)F)cn2)[C@@H](O)C1 [Compound 141]	1 to 10
CN1CC2(C1)CN(c1cc(-c3ccc(S(=O)(=O)N4CC[C@@H](Nc5ccc(C(F)(F)F)cn5)[C@@H](O)C4)cc3)ccn1)C2 [Compound 142]	1 to 10
COc1cc(-c2ccc(S(=O)(=O)N3CC[C@@H](Nc4ccc(C(F)(F)F)cn4)[C@@H](O)C3)cc2)ccn1 [Compound 165]	1 to 10
CN(c1cc(-c2ccc(S(=O)(=O)N3CC[C@@H](Nc4ccc(C(F)(F)F)cn4)[C@@H](O)C3)cc2)ccn1)C1CCC1 [Compound 130]	< 1
CN(C)CCN(C)c1ccc(-c2ccc(S(=O)(=O)N3CC[C@@H](Nc4ccc(C(F)(F)F)cn4)[C@@H](O)C3)cc2)cn1 [Compound 101]	10 to 1000
O=S(=O)(c1ccc(-c2ccnc(N3CC[C@H](O)C3)c2)cc1)N1CC[C@@H](Nc2ccc(C(F)(F)F)cn2)[C@@H](O)C1 [Compound 133]	< 1
CN(C)c1cncc(-c2ccc(S(=O)(=O)N3CC[C@@H](Nc4ccc(C(F)(F)F)cn4)[C@@H](O)C3)cc2)c1 [Compound 111]	< 1
CN1CCN(c2cncc(-c3ccc(S(=O)(=O)N4CC[C@@H](Nc5ccc(C(F)(F)F)cn5)[C@@H](O)C4)cc3)c2)CC1 [Compound 108]	< 1
COc1c(-c2ccc(S(=O)(=O)N3CC[C@@H](Nc4ccc(C(F)(F)F)cn4)[C@@H](O)C3)cc2)ccnc1C [Compound 157]	< 1
Cc1cnccc1-c1ccc(S(=O)(=O)N2CC[C@@H](Nc3ccc(C(F)(F)F)cn3)[C@@H](O)C2)cc1 [Compound 164]	< 1
Cc1nc(-c2cc(-c3ccc(S(=O)(=O)N4CC[C@@H](Nc5ccc(C(F)(F)F)cn5)[C@@H](O)C4)cc3)ccn2)no1 [Compound 67, (3S,4R)-1-((4-(2-(5-methyl-1,2,4-oxadiazol-3-yl)pyridin-4-yl)phenyl)sulfonyl)-4-((5-(trifluoromethyl)pyridin-2-yl)amino)piperidin-3-ol]	< 1

The next lines start with the values.

IC50 [nM]	Molecule
< 1	Cc1cc(C(F)(F)F)cnc1N[C@@H]1CCN(S(=O)(=O)c2ccc(-c3cnc4[nH]cc(C#N)c4c3)cc2)C[C@@H]1O [Compound 192]
< 1	N#Cc1ccc(N[C@@H]2CCN(S(=O)(=O)c3ccc(-c4ccnc(C(N)=O)c4)cc3)C[C@@H]2O)nc1 [Example 37, 4-(4-(((3S,4R)-4-((5-cyanopyridin-2-yl)amino)-3-hydroxypiperidin-1-yl)sulfonyl)phenyl)picolinamide]
< 1	Cc1c(C(N)=O)cncc1-c1ccc(S(=O)(=O)N2CC[C@@H](Nc3ccc(C(F)(F)F)cn3)[C@@H](O)C2)cc1 [Compound 184]
< 1	Cc1c(-c2ccc(S(=O)(=O)N3CC[C@@H](Nc4ccc(C(F)(F)F)cn4)[C@@H](O)C3)cc2)ccc2[nH]nc(C#N)c12 [Example 35, 5-(4-(((3S,4R)-3-hydroxy-4-((5-(trifluoromethyl)pyridin-2-yl)amino)piperidin-1-yl)sulfonyl)phenyl)-4-methyl-1H-indazole-3-carbonitrile]
1 to 10	NC(=O)c1ncc(-c2ccc(S(=O)(=O)N3CC[C@@H](Nc4ccc(C(F)(F)F)cn4)[C@@H](O)C3)cc2)[nH]1 [Compound 197]
< 1	Cc1cnc(C(N)=O)c(C)c1-c1ccc(S(=O)(=O)N2CC[C@@H](Nc3ccc(C(F)(F)F)cn3)[C@@H](O)C2)cc1 [Compound 204]
10 to 1000	O=S(=O)(c1ccc(-c2nnc(N3CCOCC3)o2)cc1)N1CC[C@@H](Nc2ccc(C(F)(F)F)cn2)[C@@H](O)C1 [Compound 194]
< 1	O=C1Nc2ncc(-c3ccc(S(=O)(=O)N4CC[C@@H](Nc5ccc(C(F)(F)F)cn5)[C@@H](O)C4)cc3)cc2C12CC2 [Compound 212]
< 1	Cc1nnc(-c2cc(-c3ccc(S(=O)(=O)N4CC[C@@H](Nc5ccc(C(F)(F)F)cn5)[C@@H](O)C4)cc3)ccn2)o1 [Example 11, (3S,4R)-1-((4-(2-(5-methyl-1,3,4-oxadiazol-2-yl)pyridin-4-yl)phenyl)sulfonyl)-4-((5-(trifluoromethyl)pyridin-2-yl)amino)piperidin-3-ol]
< 1	NS(=O)(=O)c1cc(-c2ccc(S(=O)(=O)N3CC[C@@H](Nc4ccc(C(F)(F)F)cn4)[C@@H](O)C3)cc2)ccn1 [Compound 181]
< 1	N#Cc1n[nH]c2ncc(-c3ccc(S(=O)(=O)N4CC[C@@H](Nc5ccc(C(F)(F)F)cn5)[C@@H](O)C4)cc3)cc12 [Compound 193]
< 1	O=C1NCc2cc(-c3ccc(S(=O)(=O)N4CC[C@@H](Nc5ccc(C(F)(F)F)cn5)[C@@H](O)C4)cc3)ccc2N1 [Example 14, 6-(4-(((3S,4R)-3-hydroxy-4-((5-(trifluoromethyl)pyridin-2-yl)amino)piperidin-1-yl)sulfonyl)phenyl)-3,4-dihydroquinazolin-2(1H)-one]
< 1	CC(C)(C)OC(=O)NCCn1cc(C#N)c2cc(-c3ccc(S(=O)(=O)N4CC[C@@H](Nc5ccc(C(F)(F)F)cn5)[C@@H](O)C4)cc3)cnc21 [Example 29, tert-Butyl (2-(3-cyano-5-(4-(((3S,4R)-3-hydroxy-4-((5-(trifluoromethyl)pyridin-2-yl)amino)piperidin-1-yl)sulfonyl)phenyl)-1H-pyrrolo[2,3-b]pyridin-1-yl)ethyl)carbamate]
< 1	Cc1c(-c2ccc(S(=O)(=O)N3CC[C@@H](Nc4ccc(C(F)(F)F)cn4)[C@@H](O)C3)cc2)cnc2[nH]ccc12 [Example 60, (3S,4R)-1-((4-(4-methyl-1H-pyrrolo[2,3-b]pyridin-5-yl)phenyl)sulfonyl)-4-((5-(trifluoromethyl)pyridin-2-yl)amino)piperidin-3-ol]
< 1	O=C1C[C@@H](Nc2ccc(-c3ccc(S(=O)(=O)N4CC[C@@H](Nc5ccc(C(F)(F)F)cn5)[C@@H](O)C4)cc3)cn2)CN1 [Compound 168]
< 1	O=c1[nH]c2cc(-c3ccc(S(=O)(=O)N4CC[C@@H](Nc5ccc(C(F)(F)F)cn5)[C@@H](O)C4)cc3)cnc2[nH]1 [Example 54, 6-(4-(((3S,4R)-3-hydroxy-4-((5-(trifluoromethyl)pyridin-2-yl)amino)piperidin-1-yl)sulfonyl)phenyl)-1,3-dihydro-2H-imidazo[4,5-b]pyridin-2-one]
< 1	NC(=O)c1cc(-c2ccc(S(=O)(=O)N3CC[C@@H](Nc4ccc(C(F)(F)F)cn4)[C@@H](O)C3)cc2)cnn1 [Compound 198]
1 to 10	N#Cc1cc(-c2ccc(S(=O)(=O)N3CC[C@@H](Nc4ccc(C(F)(F)F)cn4)[C@@H](O)C3)cc2)cnn1 [Compound 199]
< 1	O=C1Cc2ccc(-c3ccc(S(=O)(=O)N4CC[C@@H](Nc5ccc(C(F)(F)F)cn5)[C@@H](O)C4)cc3)cc2CN1 [Example 8, 7-(4-(((3S,4R)-3-hydroxy-4-((5-(trifluoromethyl)pyridin-2-yl)amino)piperidin-1-yl)sulfonyl)phenyl)-1,4-dihydroisoquinolin-3(2H)-one]
< 1	COc1cc(-c2ccc(S(=O)(=O)N3CC[C@@H](Nc4ccc(C(F)(F)F)cn4)[C@@H](O)C3)cc2)cc2c1NC(=O)C2 [Example 15, 5-(4-(((3S,4R)-3-hydroxy-4-((5-(trifluoromethyl)pyridin-2-yl)amino)piperidin-1-yl)sulfonyl)phenyl)-7-methoxyindolin-2-one]
